In ChEMBL document CHEMBL6121044, “Discovery of Novel Spirocyclic MAT2A Inhibitors Demonstrating High In Vivo Efficacy in MTAP-Null Xenograft Models” (J Med Chem, 2025):
Values after ≈ are worked out from the molar mass of the structure shown.

Assays:
[1] = Dissociation constant, pKa of compound; assay type: physicochemical
[2] = Genotoxicity in Salmonella typhimurium TA1535; assay type: toxicity; conditions: salmonella enterica subsp. enterica serovar typhimurium
[3] = Microsomal metabolic stability in dog liver microsomes assessed as half life; assay type: ADME, Canis lupus familiaris, Microsome
[4] = Microsomal metabolic stability in Cynomolgus monkey liver microsomes assessed as half life; assay type: ADME, Macaca fascicularis, Microsome
[5] = target: T1, S-adenosylmethionine synthase isoform type-2 (Homo sapiens, UniProt P31153); test: Inhibition of MAT2A in MTAP-knock out human HCT-116 cells assessed as inhibition of PRMT5-mediated symmetric […]-arginine (SDMA) level; assay type: cell-based
T1 sequence (P31153 whole entry, canonical isoform): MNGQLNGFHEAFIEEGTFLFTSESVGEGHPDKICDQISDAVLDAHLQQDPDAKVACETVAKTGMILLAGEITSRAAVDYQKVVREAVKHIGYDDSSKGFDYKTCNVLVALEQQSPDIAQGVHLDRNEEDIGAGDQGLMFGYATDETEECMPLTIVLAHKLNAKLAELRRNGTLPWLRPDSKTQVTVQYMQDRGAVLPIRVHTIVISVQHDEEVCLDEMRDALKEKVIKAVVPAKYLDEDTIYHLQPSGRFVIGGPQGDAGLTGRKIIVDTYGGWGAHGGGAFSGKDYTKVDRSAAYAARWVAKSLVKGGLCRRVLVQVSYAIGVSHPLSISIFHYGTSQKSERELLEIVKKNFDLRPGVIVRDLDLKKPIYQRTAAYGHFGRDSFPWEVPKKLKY

[6] = target: T1, S-adenosylmethionine synthase isoform type-2; test: Inhibition of MAT2A (unknown origin) assessed as release of inorganic phosphate using ATP/L-methionine pre-incubated for 30 mins followed by substrate addition measured after 2.5 hrs by colorimetric assay
Cytochrome P450 2C8 = target: T2, Cytochrome P450 2C8 (Homo sapiens, UniProt P10632); test: Inhibition of CYP2C8 (unknown origin); assay type: ADME
T2 sequence (P10632 whole entry): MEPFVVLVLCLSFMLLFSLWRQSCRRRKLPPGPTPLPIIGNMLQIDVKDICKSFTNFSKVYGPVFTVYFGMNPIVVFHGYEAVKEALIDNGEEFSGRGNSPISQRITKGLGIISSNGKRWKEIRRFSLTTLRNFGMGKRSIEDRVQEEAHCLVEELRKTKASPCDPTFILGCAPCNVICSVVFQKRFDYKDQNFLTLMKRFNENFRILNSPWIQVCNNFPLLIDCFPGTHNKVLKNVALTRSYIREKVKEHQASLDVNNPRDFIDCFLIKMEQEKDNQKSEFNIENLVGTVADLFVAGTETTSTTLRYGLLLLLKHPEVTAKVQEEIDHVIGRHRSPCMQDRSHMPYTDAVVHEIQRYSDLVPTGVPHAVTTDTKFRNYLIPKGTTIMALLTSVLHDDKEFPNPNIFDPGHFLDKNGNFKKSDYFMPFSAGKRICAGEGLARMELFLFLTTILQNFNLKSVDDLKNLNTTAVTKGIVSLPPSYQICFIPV

[7] = AUCinf in beagle dog at 10 mg/kg, po measured upto 24 hrs upto 24 hrs by LC-MS/MS analysis; assay type: ADME, organism-based, Canis lupus familiaris; conditions: in vivo
[8] = AUCinf in male ICR mouse at 2 mg/kg, iv measured upto 24 hrs by LC-MS/MS analysis; assay type: ADME, organism-based; conditions: in vivo
HCT-116 [9] = test: Antiproliferative activity against MTAP-knock out human HCT-116 cells assessed as proliferation inhibition rate measured after 5 days by CTG assay; assay type: functional, cell-based; conditions: HCT-116, 120 h
[10] = AUCinf in beagle dog at 2 mg/kg, iv measured upto 24 hrs upto 24 hrs by LC-MS/MS analysis; assay type: ADME, organism-based, Canis lupus familiaris; conditions: in vivo
[11] = Microsomal metabolic stability in rat liver microsomes assessed as half life; assay type: ADME, Microsome
[12] = Half life in male ICR mouse at 2 mg/kg, iv measured upto 24 hrs by LC-MS/MS analysis; assay type: ADME, organism-based; conditions: in vivo
[13] = Cmax in male ICR mouse at 10 mg/kg, po measured upto 24 hrs by LC-MS/MS analysis; assay type: ADME, organism-based; conditions: in vivo
[14] = Clearance rate in beagle dog at 2 mg/kg, iv measured upto 24 hrs upto 24 hrs by LC-MS/MS analysis; assay type: ADME, organism-based, Canis lupus familiaris; conditions: in vivo
[15] = Plasma protein binding in rat assessed as unbound fraction; assay type: ADME, cell-free
[16] = Half life in beagle dog at 2 mg/kg, iv measured upto 24 hrs upto 24 hrs by LC-MS/MS analysis; assay type: ADME, organism-based, Canis lupus familiaris; conditions: in vivo
[17] = Oral bioavailability in male ICR mouse at 10 mg/kg measured upto 24 hrs by LC-MS/MS analysis; assay type: ADME, organism-based; conditions: in vivo
HCT-116 [18] = test: Antiproliferative activity against MTAP-knock out human HCT-116 cells assessed as maximal inhibition rate at 10 uM measured after 5 days by CTG assay relative to control; assay type: functional; conditions: time 5 day
[19] = Hepatic metabolic stability in Cynomolgus monkey hepatocyte assessed as half life; assay type: ADME, cell-based, Macaca fascicularis; conditions: hepatocytes
[20] = Selectivity index, ratio of IC50 for antiproliferative activity against wild type human HCT-116 cells to IC50 for antiproliferative activity against MTAP-knock out human HCT-116 cells
[21] = Clearance in male ICR mouse at 10 mg/kg, po and 2 mg/kg, iv measured upto 24 hrs; assay type: ADME, organism-based; conditions: in vivo
[22] = Microsomal metabolic stability in human liver microsomes assessed as clearance; assay type: ADME, Microsome; conditions: read-out: CLH
[23] = Cmax in beagle dog at 10 mg/kg, po measured upto 24 hrs upto 24 hrs by LC-MS/MS analysis; assay type: ADME, organism-based, Canis lupus familiaris; conditions: in vivo
[24] = target: T1, S-adenosylmethionine synthase isoform type-2; test: Inhibition of MAT2A in MTAP-knock out human HCT-116 cells assessed as inhibition of S-adenosylmethionine level; assay type: cell-based
[25] = Clearance rate in male ICR mouse at 2 mg/kg, iv measured upto 24 hrs by LC-MS/MS analysis; assay type: ADME, organism-based; conditions: in vivo
[26] = Cmax in male Sprague-Dawley rat at 10 mg/kg, po measured upto 24 hrs upto 24 hrs by LC-MS/MS analysis; assay type: ADME, organism-based; conditions: in vivo
[27] = Efflux ratio of apparent permeability in human Caco-2 cells; assay type: ADME, cell-based
[28] = AUCinf in male ICR mouse at 10 mg/kg, po measured upto 24 hrs by LC-MS/MS analysis; assay type: ADME, organism-based; conditions: in vivo
[29] = Half life in male Sprague-Dawley rat at 2 mg/kg, iv measured upto 24 hrs upto 24 hrs by LC-MS/MS analysis; assay type: ADME, organism-based; conditions: in vivo
[30] = Oral bioavailability in beagle dog at 10 mg/kg measured upto 24 hrs upto 24 hrs by LC-MS/MS analysis; assay type: ADME, organism-based, Canis lupus familiaris; conditions: in vivo
[31] = Volume of distribution at steady state in male ICR mouse at 10 mg/kg, po and 2 mg/kg, iv measured upto 24 hrs; assay type: ADME, organism-based; conditions: in vivo
[32] = Hepatic metabolic stability in human hepatocyte assessed as half life; assay type: ADME, cell-based; conditions: hepatocytes
[33] = Genotoxicity in Salmonella typhimurium TA97a; assay type: toxicity; conditions: salmonella enterica subsp. enterica serovar typhimurium
[34] = Solubility of the compound in pH 7.4 phosphate buffer; assay type: physicochemical
[35] = Solubility of the compound in FaSSIF; assay type: physicochemical
[36] = Volume of distribution at steady state in beagle dog at 2 mg/kg, iv measured upto 24 hrs upto 24 hrs by LC-MS/MS analysis; assay type: ADME, organism-based, Canis lupus familiaris; conditions: in vivo, read-out: Vdss

Row | pKa [1] | half-life [3] [min] | half-life [4] [min] | IC50 [5] [nM] | IC50 [6] [nM] | IC50 (Cytochrome P450 2C8) [µM] | AUC(0-inf) [7] [ng·h/mL] | AUC(0-inf) [8] [ng·h/mL] | IC50 (HCT-116 [9]) [nM] | AUC(0-inf) [10] [ng·h/mL] | half-life [11] [min] | half-life [12] [min] | Cmax [13] [ng/mL] | clearance [14] [mL/min/kg] | fraction unbound [15] | half-life [16] [min] | bioavailability [17] [%] | half-life [19] [min] | Structure (SMILES) | Activity [2] | Imax (HCT-116 [18]) [%] | also measured
1 | 4.9 | > 186 | > 186 | 2 | 4 | > 10 | 12300 | 3660 | 47 | 1860 | > 186 | 116 | 5820 | 15.3 | 0.373 | 394 | 132 | > 217 | [2H]C([2H])([2H])NC1=NC(=O)[C@]2(CCc3ncccc32)c2cc(C(C)(F)F)ccc21 | Non-toxic | 100 | Selectivity Index [20]: >181; clearance [21]: 9.12 mL/min/kg; CLint scaled [22]: < 9.3 mL/min/kg; Cmax [23]: 2140 ng/mL; IC50 [24]: 4 nM; clearance [25]: 9.12 mL/min/kg; Cmax [26]: 6100 ng/mL; efflux ratio [27]: 5.27; AUC(0-inf) [28]: 24900 ng·h/mL; t1/2 [29]: 2.03 h; F ([30]; po, 10 mg/kg, 24 h): 165%; Vdss [31]: 1.53 L/kg; half-life [32]: > 217 min; Activity [33]: Non-toxic; solubility [34]: 174 µM (≈ 59.9 µg/mL); solubility [35]: 208 µM (≈ 71.6 µg/mL); Vd [36]: 1.14 L/kg
2 | 4.7 | > 186 | > 186 | 1 | 4 | > 10 | 13600 | 4190 | 58 | 2610 | > 186 | 151 | 5420 | 6.95 | 0.412 | 415 | 97 | > 217 | [2H]C([2H])([2H])NC1=NC(=O)[C@]2(CCc3ncccc32)c2cc(C(F)(F)F)ccc21 | Non-toxic | 89.34 | Selectivity Index [20]: 20; clearance [21]: 7.98 mL/min/kg; CLint scaled [22]: < 9.3 mL/min/kg; Cmax [23]: 1660 ng/mL; IC50 [24]: 4 nM; clearance [25]: 7.98 mL/min/kg; Cmax [26]: 8520 ng/mL; efflux ratio [27]: 1.95; AUC(0-inf) [28]: 35800 ng·h/mL; t1/2 [29]: 2.35 h; bioavailability ([30]; beagle): 130%; Vdss [31]: 1.7 L/kg; half-life [32]: > 217 min; Activity [33]: Non-toxic; solubility [34]: 173 µM (≈ 60.3 µg/mL); solubility [35]: 207 µM (≈ 72.1 µg/mL); Vd [36]: 1.14 L/kg
